# Data taken from patent publication US20240245793A1, “PSD-95 INHIBITORS AND USES THEREOF” (priority 2021, published 2024).
# Like-named read-outs stand apart in the source and are kept apart here. Starred links: 1 amine or outer side, 2 acyl side, 3 side chain; linkers in the order of their positions; H or OH if unused. Positions of bridges follow the written chain, without caps; N, C: chain ends. Residues, ends and D or L forms follow the SMILES beside them. Chains are numbered I, II in the order given. CO(CH2CH2O)5CH2CH2CO = O=C(CCOCCOCCOCCOCCOCCC(=O)[*:2])[*:1]
# Tests used:
# PDZ1-2 of PSD-95 = PDZ1-2 of PSD-95 (Homo sapiens, UniProt P78352); experiment: Fluorescence polarization (FP) competition assay, affinity to PDZ1-2 of PSD-95; format: binding; details: mean ± SEM
# Experimental: First, a saturation binding curve was obtained to determine KD values for the interaction between a fluorescent dimeric probe and PDZ1-2 of PSD-95. Increasing concentrations of PDZ1-2 (0.015-30 nM) were added to a constant concentration of the probe (0.5 nM). The fluorescence polarization (FP) of the sample was measured at excitation/emission wavelength of 635/670 nm and the generated FP values were fitted to a one site binding model using the software GraphPad Prism. […] The FP values were fitted to a one site competition (variable slope) model in GraphPad prism. The resulting IC50 values were converted to Ki values as described previously by Nikolovska-Coleska et al., Anal. Biochem., 2004, 332, 261).
# plasmin = biological target: T1, plasmin (Homo sapiens, UniProt P00747); experiment: In vitro plasmin stability assay; format: in vitro ADME; details: isolated enzyme plasmin
# T1 construct: Tissue plasminogen factor (tPA), which generates plasmin from plasminogen
# Experimental: At selected time points during the incubation, the ligands were extracted from 80 μL of assay matrix by treatment with 80 μL of 50% acetonitrile (ACN). The samples were filtered and analysed by UPLC to determine the amount of ligand remaining. LC-MS analysis was performed to confirm ligand integrity and identify cleavage sites.
# [1] = OPEG4 dimers without CPP, n ≥ 3 (Table 4, FIG. 1)
# [2] = dimeric ligands fused to L-TAT and L-Arg9, n ≥ 3 (Table 5, FIG. 2)
# T1 sequence (P00747 581-810 limits assumed, species assumed): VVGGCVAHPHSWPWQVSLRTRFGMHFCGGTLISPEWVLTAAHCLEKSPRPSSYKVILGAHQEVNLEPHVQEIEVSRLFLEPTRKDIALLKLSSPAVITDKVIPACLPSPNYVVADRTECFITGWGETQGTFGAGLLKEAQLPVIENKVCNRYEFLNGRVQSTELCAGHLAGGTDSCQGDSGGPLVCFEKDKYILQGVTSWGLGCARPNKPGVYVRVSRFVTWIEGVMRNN
# T1 sequence (P00747 97-580 partner limits assumed, species assumed): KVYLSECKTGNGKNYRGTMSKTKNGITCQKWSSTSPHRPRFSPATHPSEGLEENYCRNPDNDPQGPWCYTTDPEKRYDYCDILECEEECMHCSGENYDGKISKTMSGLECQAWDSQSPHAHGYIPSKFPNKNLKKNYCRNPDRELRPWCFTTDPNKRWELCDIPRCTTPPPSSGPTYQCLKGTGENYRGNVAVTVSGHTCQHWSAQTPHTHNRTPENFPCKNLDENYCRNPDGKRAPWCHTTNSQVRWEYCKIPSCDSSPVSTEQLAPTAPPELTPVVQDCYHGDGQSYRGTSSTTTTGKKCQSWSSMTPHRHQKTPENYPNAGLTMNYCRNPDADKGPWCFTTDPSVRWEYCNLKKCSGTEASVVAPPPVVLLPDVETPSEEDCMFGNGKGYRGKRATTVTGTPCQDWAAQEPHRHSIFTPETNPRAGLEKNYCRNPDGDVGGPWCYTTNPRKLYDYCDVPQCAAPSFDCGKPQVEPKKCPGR
# PDZ1-2 of PSD-95, sequence (P78352 61-249 limits assumed): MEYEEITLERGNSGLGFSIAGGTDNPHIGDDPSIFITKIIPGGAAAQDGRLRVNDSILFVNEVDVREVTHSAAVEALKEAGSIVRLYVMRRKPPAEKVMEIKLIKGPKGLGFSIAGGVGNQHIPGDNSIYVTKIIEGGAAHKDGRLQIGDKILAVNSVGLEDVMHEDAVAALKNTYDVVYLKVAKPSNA
structure (smiles),measurement,setting,value
"CC(C)C[C@H](NC(=O)[C@@H](NC(=O)[C@H](CCC(=O)O)NC(=O)[C@H](CCCCN)NC(=O)CCOCCOCCOCCOCCOCCC(=O)N[C@@H](CCCCN)C(=O)N[C@@H](CCC(=O)O)C(=O)N[C@H](C(=O)N[C@@H](CC(C)C)C(=O)N[C@H](C(=O)O)C(C)C)[C@@H](C)O)[C@@H](C)O)C(=O)N[C@H](C(=O)O)C(C)C [Compound 2, OPEG4-(KETLV)2]",Ki,PDZ1-2 of PSD-95; [1],11.1 ± 0.3 nM
"CC(C)[C@H](NC(=O)[C@@H](NC(=O)[C@@H](NC(=O)[C@H](CCC(=O)O)NC(=O)[C@H](CCCCN)NC(=O)CCOCCOCCOCCOCCOCCC(=O)N[C@@H](CCCCN)C(=O)N[C@@H](CCC(=O)O)C(=O)N[C@H](C(=O)N[C@H](C(=O)N[C@H](C(=O)O)C(C)C)[C@@H](C)O)[C@@H](C)O)[C@@H](C)O)[C@@H](C)O)C(=O)O [Compound 3, OPEG4-(KETTV)2]",Ki,PDZ1-2 of PSD-95; [1],14.4 ± 0.4 nM
"CC(C)[C@H](NC(=O)[C@@H](NC(=O)[C@@H](NC(=O)[C@H](CCC(=O)O)NC(=O)[C@H](CCCCN)NC(=O)CCOCCOCCOCCOCCOCCC(=O)N[C@@H](CCCCN)C(=O)N[C@@H](CCC(=O)O)C(=O)N[C@H](C(=O)N[C@H](C(=O)N[C@H](C(=O)O)C(C)C)C(C)C)[C@@H](C)O)[C@@H](C)O)C(C)C)C(=O)O [Compound 4, OPEG4-(KETVV)2] (I: KETVV-OH / II: KETVV-OH; linker I:N-II:N via CO(CH2CH2O)5CH2CH2CO; C-terminus assumed)",Ki,PDZ1-2 of PSD-95; [1],15.8 ± 1.2 nM
CC(=O)N[C@@H](Cc1ccc(O)cc1)C(=O)NCC(=O)N[C@@H](CCCNC(=N)N)C(=O)N[C@@H](CCCCN)C(=O)N[C@@H](CCCCN)C(=O)N[C@@H](CCCNC(=N)N)C(=O)N[C@@H](CCCNC(=N)N)C(=O)N[C@@H](CCC(N)=O)C(=O)N[C@@H](CCCNC(=N)N)C(=O)N[C@@H](CCCNC(=N)N)C(=O)N[C@@H](CCCNC(=N)N)C(=O)N(CCOCCOCCC(=O)N[C@@H](CCCCN)C(=O)N[C@@H](CCC(=O)O)C(=O)N[C@H](C(=O)N[C@@H](CC(C)C)C(=O)N[C@H](C(=O)O)C(C)C)[C@@H](C)O)CCOCCOCCC(=O)N[C@@H](CCCCN)C(=O)N[C@@H](CCC(=O)O)C(=O)N[C@H](C(=O)N[C@@H](CC(C)C)C(=O)N[C@H](C(=O)O)C(C)C)[C@@H](C)O [Compound 11],Ki,PDZ1-2 of PSD-95; [2],5.4 ± 0.9 nM
same,half-life,plasmin; read-out: T1/2,346 ± 105 min
CC(=O)N[C@@H](Cc1ccc(O)cc1)C(=O)NCC(=O)N[C@@H](CCCNC(=N)N)C(=O)N[C@@H](CCCCN)C(=O)N[C@@H](CCCCN)C(=O)N[C@@H](CCCNC(=N)N)C(=O)N[C@@H](CCCNC(=N)N)C(=O)N[C@@H](CCC(N)=O)C(=O)N[C@@H](CCCNC(=N)N)C(=O)N[C@@H](CCCNC(=N)N)C(=O)N[C@@H](CCCNC(=N)N)C(=O)N(CCOCCOCCC(=O)N[C@@H](CCCCN)C(=O)N[C@@H](CCC(=O)O)C(=O)N[C@H](C(=O)N[C@H](C(=O)N[C@H](C(=O)O)C(C)C)[C@@H](C)O)[C@@H](C)O)CCOCCOCCC(=O)N[C@@H](CCCCN)C(=O)N[C@@H](CCC(=O)O)C(=O)N[C@H](C(=O)N[C@H](C(=O)N[C@H](C(=O)O)C(C)C)[C@@H](C)O)[C@@H](C)O [Compound 13],Ki,PDZ1-2 of PSD-95; [2],6.5 ± 0.7 nM
same,half-life,plasmin; read-out: T1/2,570 ± 180 min
CC(=O)N[C@@H](Cc1ccc(O)cc1)C(=O)NCC(=O)N[C@@H](CCCNC(=N)N)C(=O)N[C@@H](CCCCN)C(=O)N[C@@H](CCCCN)C(=O)N[C@@H](CCCNC(=N)N)C(=O)N[C@@H](CCCNC(=N)N)C(=O)N[C@@H](CCC(N)=O)C(=O)N[C@@H](CCCNC(=N)N)C(=O)N[C@@H](CCCNC(=N)N)C(=O)N[C@@H](CCCNC(=N)N)C(=O)N(CCOCCOCCC(=O)N[C@@H](CCCCN)C(=O)N[C@@H](CCC(=O)O)C(=O)N[C@H](C(=O)N[C@H](C(=O)N[C@H](C(=O)O)C(C)C)C(C)C)[C@@H](C)O)CCOCCOCCC(=O)N[C@@H](CCCCN)C(=O)N[C@@H](CCC(=O)O)C(=O)N[C@H](C(=O)N[C@H](C(=O)N[C@H](C(=O)O)C(C)C)C(C)C)[C@@H](C)O [Compound 15],Ki,PDZ1-2 of PSD-95; [2],2.1 ± 0.2 nM
same,half-life,plasmin; read-out: T1/2,385 ± 130 min
CC[C@H](C)[C@H](NC(=O)CCOCCOCCN(CCOCCOCCC(=O)N[C@H](C(=O)N[C@@H](CCC(=O)O)C(=O)N[C@H](C(=O)N[C@@H](CC(=O)O)C(=O)N[C@H](C(=O)O)C(C)C)[C@@H](C)O)[C@@H](C)CC)C(=O)[C@H](CCCCN)NC(=O)[C@H](CO)NC(=O)[C@H](Cc1c[nH]cn1)NC(=O)[C@H](C)NC(=O)[C@H](Cc1c[nH]cn1)NC(=O)[C@H](C)NC(=O)[C@H](CCC(N)=O)NC(=O)[C@H](CCCCN)NC(=O)[C@H](CCCNC(=N)N)NC(=O)[C@@H](NC(=O)[C@H](CCCNC(=N)N)NC(=O)[C@H](CCCNC(=N)N)NC(=O)[C@H](CCCNC(=N)N)NC(=O)[C@H](CC(C)C)NC(=O)[C@@H](NC(=O)[C@@H](NC(=O)[C@H](CC(C)C)NC(=O)[C@H](CC(C)C)NC(C)=O)[C@@H](C)CC)[C@@H](C)CC)[C@@H](C)CC)C(=O)N[C@@H](CCC(=O)O)C(=O)N[C@H](C(=O)N[C@@H](CC(=O)O)C(=O)N[C@H](C(=O)O)C(C)C)[C@@H](C)O [Compound 52],half-life at 100 μM,plasmin,49 ± 9 min
CC[C@H](C)[C@H](NC(=O)CCOCCOCCN(CCOCCOCCC(=O)N[C@H](C(=O)N[C@@H](CCC(=O)O)C(=O)N[C@H](C(=O)N[C@@H](CC(=O)O)C(=O)N[C@H](C(=O)O)C(C)C)[C@@H](C)O)[C@@H](C)CC)C(=O)[C@H](C)NC(=O)[C@H](CC(C)C)NC(=O)[C@H](CCCCN)NC(=O)[C@H](CC(C)C)NC(=O)[C@H](C)NC(=O)[C@H](C)NC(=O)[C@H](CCCCN)NC(=O)[C@H](CC(C)C)NC(=O)[C@H](C)NC(=O)[C@H](CCCCN)NC(=O)[C@H](CC(C)C)NC(=O)[C@H](C)NC(=O)[C@H](CC(C)C)NC(=O)[C@H](CCCCN)NC(=O)[C@H](CC(C)C)NC(=O)[C@H](C)NC(=O)[C@H](CC(C)C)NC(=O)[C@H](CCCCN)NC(C)=O)C(=O)N[C@@H](CCC(=O)O)C(=O)N[C@H](C(=O)N[C@@H](CC(=O)O)C(=O)N[C@H](C(=O)O)C(C)C)[C@@H](C)O [Compound 54],half-life at 100 μM,plasmin,13 ± 4 min
CC[C@H](C)[C@H](NC(=O)CCOCCOCCN(CCOCCOCCC(=O)N[C@H](C(=O)N[C@@H](CCC(=O)O)C(=O)N[C@H](C(=O)N[C@@H](CC(=O)O)C(=O)N[C@H](C(=O)O)C(C)C)[C@@H](C)O)[C@@H](C)CC)C(=O)[C@H](Cc1ccccc1)NC(=O)[C@H](CCC(N)=O)NC(=O)CNC(=O)[C@H](CCCNC(=N)N)NC(=O)[C@H](CC(C)C)NC(=O)[C@H](CC(C)C)NC(=O)[C@H](CCCNC(=N)N)NC(=O)[C@H](CC(C)C)NC(=O)[C@H](Cc1ccc(O)cc1)NC(=O)[C@@H](NC(=O)[C@H](CC(C)C)NC(=O)[C@@H]1CCCN1C(C)=O)[C@@H](C)CC)C(=O)N[C@@H](CCC(=O)O)C(=O)N[C@H](C(=O)N[C@@H](CC(=O)O)C(=O)N[C@H](C(=O)O)C(C)C)[C@@H](C)O [Compound 56],half-life at 100 μM,plasmin,910 min
CC[C@@H](C)[C@@H](NC(=O)[C@@H](CC(C)C)NC(=O)[C@H]1CCCN1C(C)=O)C(=O)N[C@H](Cc1ccc(O)cc1)C(=O)N[C@H](CC(C)C)C(=O)N[C@H](CCCNC(=N)N)C(=O)N[C@H](CC(C)C)C(=O)N[C@H](CC(C)C)C(=O)N[C@H](CCCNC(=N)N)C(=O)NCC(=O)N[C@H](CCC(N)=O)C(=O)N[C@H](Cc1ccccc1)C(=O)N(CCOCCOCCC(=O)N[C@H](C(=O)N[C@@H](CCC(=O)O)C(=O)N[C@H](C(=O)N[C@@H](CC(=O)O)C(=O)N[C@H](C(=O)O)C(C)C)[C@@H](C)O)[C@@H](C)CC)CCOCCOCCC(=O)N[C@H](C(=O)N[C@@H](CCC(=O)O)C(=O)N[C@H](C(=O)N[C@@H](CC(=O)O)C(=O)N[C@H](C(=O)O)C(C)C)[C@@H](C)O)[C@@H](C)CC [Compound 58],half-life at 100 μM,plasmin,1440 min
CC[C@H](C)[C@H](NC(=O)CCOCCOCCN(CCOCCOCCC(=O)N[C@H](C(=O)N[C@@H](CCC(=O)O)C(=O)N[C@H](C(=O)N[C@@H](CC(=O)O)C(=O)N[C@H](C(=O)O)C(C)C)[C@@H](C)O)[C@@H](C)CC)C(=O)[C@@H]1CC(=O)NC[C@H](NC(C)=O)C(=O)N[C@@H](CCCCN)C(=O)N[C@@H](C)C(=O)N2CCC[C@H]2C(=O)N[C@@H](CCC(=O)O)C(=O)N[C@@H]([C@@H](C)O)C(=O)N[C@@H](C)C(=O)N[C@@H](CC(C)C)C(=O)N1)C(=O)N[C@@H](CCC(=O)O)C(=O)N[C@H](C(=O)N[C@@H](CC(=O)O)C(=O)N[C@H](C(=O)O)C(C)C)[C@@H](C)O [Compound 60],half-life at 100 μM,plasmin; read-out: T1/2,1440 min
CC[C@H](C)[C@H](NC(=O)CCOCCOCCN(CCOCCOCCC(=O)N[C@H](C(=O)N[C@@H](CCC(=O)O)C(=O)N[C@H](C(=O)N[C@@H](CC(=O)O)C(=O)N[C@H](C(=O)O)C(C)C)[C@@H](C)O)[C@@H](C)CC)C(=O)[C@H](CCCCN)NC(=O)CCCNC(=O)CC[C@@H]1NC(=O)[C@@H](CCCNC(=N)N)NC(=O)[C@H](CCCNC(=N)N)NC(=O)[C@@H](CCCNC(=N)N)NC(=O)[C@H](CCCNC(=N)N)NC(=O)[C@H](Cc2ccc3ccccc3c2)NC(=O)[C@@H](Cc2ccccc2)NC(=O)[C@H](Cc2ccccc2)NC1=O)C(=O)N[C@@H](CCC(=O)O)C(=O)N[C@H](C(=O)N[C@@H](CC(=O)O)C(=O)N[C@H](C(=O)O)C(C)C)[C@@H](C)O [Compound 62],half-life at 100 μM,plasmin,1440 min
